In the case of `*/C(C#N)=C/c1ccc(N(CC)Cc2ccccc2CN(CC)c2ccc(/C=C(\C#N)S(*)(=O)=O)cc2)cc1` (repeat unit), the glass transition temperature turned out to be 190.00 °C. For `*/C=C(/*)C(CCCCCCC)[Si](C)(C)C` (repeat unit) the value was 150.00 °C; for `*/C=C(\C#N)c1cccc(/C(C#N)=C/c2ccc(/C=C/c3ccc(N(CC)Cc4ccccc4CN(CC)c4ccc(/C=C/c5ccc(*)s5)cc4)cc3)s2)c1` (repeat unit), 178.00 °C. On to `*/C=C/c1ccc(/N=N/c2ccc(N(C)CCOC(=O)Nc3ccc(C)c(NC(=O)OCCN(C)c4ccc(/N=N/c5ccc(/C=C/C6=CC(=C(C#N)C#N)C=C(*)O6)cc5)cc4)c3)cc2)cc1` (repeat unit), for which the glass transition temperature worked out at 196.00 °C. `*/C=C/c1ccc(N(CC)Cc2ccccc2CN(CC)c2ccc(/C=C/c3ccc(/C=C(\C#N)S(=O)(=O)/C(C#N)=C/c4ccc(*)s4)s3)cc2)cc1` (repeat unit) yielded a glass transition temperature of 178.00 °C. `*=CNc1ccc(CCc2ccc(N=*)cc2)cc1` (repeat unit) came in with a glass transition temperature of 125.00 °C.

`*CC(=O)NC(C)C(=O)O*` (repeat unit) registered a glass transition temperature of 54.60 °C.

In turn, `*CC(C)(C)COC(=O)Nc1ccc(C)c(NC(=O)O*)c1` (repeat unit) yielded a glass transition temperature of -32.00 °C. Under `*CC1CCC(COP(=O)(/N=N/c2ccc(-c3ccc(/N=N/P(=O)(O*)OC)cc3)cc2)OC)CC1` (repeat unit) stands 58.00 °C. Compound `*CC1CCC(COP(=O)(/N=N/c2ccc(C(=O)c3ccc(/N=N/P(=O)(O*)OC)cc3)cc2)OC)CC1` (repeat unit) gave a glass transition temperature of 52.00 °C. For `*CCCCCCCCOC(=O)Nc1ccc(C)c(NC(=O)O*)c1` (repeat unit) the value was 64.00 °C. Regarding `*CCCCCCOC(=O)Nc1ccc(NC(=O)OCCCCCCOc2ccc(-c3ccc(O*)cc3)cc2)c(C)c1` (repeat unit), the glass transition temperature came to 89.00 °C. For `*CCCCCCOP(=O)(/N=N/c1ccc(C(=O)c2ccc(/N=N/P(=O)(O*)OC)cc2)cc1)OC` (repeat unit) the value was 31.00 °C. Under `*CCCCCOC(=O)c1ccccc1C(=O)[O][Pb][O]C(=O)c1ccccc1C(=O)OCCCCCOC(=O)Nc1ccc(C)c(NC(=O)O*)c1` (repeat unit) stands -11.30 °C. `*CCCCOC(=O)Nc1ccc(C)c(NC(=O)O*)c1` (repeat unit) yielded a glass transition temperature of 42.00 °C. For `*CCN(CCCCCCOc1ccc(/C=C/c2ccc([N+](=O)[O-])cc2)cc1)CCOC(=O)Nc1ccc(C)c(NC(=O)O*)c1` (repeat unit), the glass transition temperature came to 58.50 °C. Under `*CCN(CCOC(=O)NCC1(C)CC(NC(=O)O*)CC(C)(C)C1)c1ccc(/N=N/c2ccc([N+](=O)[O-])cc2)cc1` (repeat unit) stands 137.00 °C; under `*CCN(CCOC(=O)Nc1cccc(NC(=O)O*)c1C)c1ccc(/N=N/c2ccc([N+](=O)[O-])cc2)cc1` (repeat unit), 147.00 °C. Compound `*CCN(CCOC(=O)c1ccc(C(=O)O*)c(OCCCCC)c1)c1ccc(/N=N/c2nc(C#N)c(C#N)[nH]2)cc1` (repeat unit) came in with a glass transition temperature of 131.00 °C.

Regarding `*CCOC(=O)Nc1cc(NC(=O)O*)ccc1C` (repeat unit), the glass transition temperature was 52.00 °C. Consider `*CCOC(=O)c1ccc(-c2ccc(C(=O)O*)cc2C)c(C)c1` (repeat unit), for which the glass transition temperature came to 73.00 °C.

In turn, `*CCOCCOC(=O)C(CCCCCCC)C(=O)O*` (repeat unit) had a glass transition temperature of -58.00 °C. Turning to `*CCOCCOCCOCCOCCOCCOC(=O)c1cc(OCCCCCCOc2ccc(-c3ccc(OC)cc3)cc2)cc(C(=O)O*)c1` (repeat unit), the glass transition temperature amounted to 12.50 °C. Take `*CCOCCOP(=O)(/N=N/c1ccc(-c2ccc(/N=N/P(=O)(O*)OC)cc2)cc1)OC` (repeat unit): the glass transition temperature was 22.00 °C.

Compound `*CCOCCOP(=O)(/N=N/c1ccc(C(=O)c2ccc(/N=N/P(=O)(O*)OC)cc2)cc1)OC` (repeat unit) registered a glass transition temperature of 33.00 °C. Compound `*CCOCCOP(=O)(/N=N/c1ccc(Oc2ccc(/N=N/P(=O)(O*)OC)cc2)cc1)OC` (repeat unit) had a glass transition temperature of 32.00 °C. Regarding `*CCOP(=O)(/N=N/c1ccc(CCOC(=O)c2cc(C(=O)OCCc3ccc(/N=N/P(=O)(O*)OC)cc3)cc(C(C)(C)C)c2)cc1)OC` (repeat unit), the glass transition temperature stood at 84.00 °C. For `*[CH2][Ge]([CH3])([CH3])[CH2]c1cocc1*` (repeat unit), the glass transition temperature is -28.00 °C. As for `*N(C)[Si](*)(C)C=C` (repeat unit), the glass transition temperature was -20.00 °C. The compound `*N(C)[Si](C)(C)N(C)[Si](*)(C)CC` (repeat unit) had a glass transition temperature of -20.00 °C. For `*N=P(*)(C)C` (repeat unit), the glass transition temperature was -42.00 °C. Under `*N=P(*)(C)CCCCCC` (repeat unit) stands -69.00 °C; under `*N=P(*)(CCC)CCC` (repeat unit), 10.00 °C. `*NC1CC(C)(C)CC(C)(CNC(=O)CCCCC(*)=O)C1` (repeat unit) returned a glass transition temperature of 150.80 °C. As to `*Nc1cc(NC(=O)C(*)=O)ccc1C` (repeat unit), the glass transition temperature is -54.6 °C. `*Nc1cc(NC(=O)c2cc(OCCN(C)c3ccc(S(=O)(=O)C(F)(F)C(F)(F)C(F)(F)C(F)(F)C(F)(F)C(F)(F)C(F)(F)C(F)(F)F)cc3)cc(C(*)=O)c2)cc(C(=O)OCCN(C)c2ccc(C#N)cc2)c1` (repeat unit) had a glass transition temperature of 157.00 °C. For `*Nc1cc(NC(=O)c2cc(OCCN(C)c3ccc([N+](=O)[O-])cc3)cc(C(*)=O)c2)cc(C(=O)OC)c1` (repeat unit), the glass transition temperature amounted to 177.00 °C. Compound `*Nc1cc(NC(=O)c2cc(OCCN(C)c3ccc([N+](=O)[O-])cc3)cc(C(*)=O)c2)cc(C(=O)OC2CC(C)CCC2C(C)C)c1` (repeat unit) returned a glass transition temperature of 193.00 °C.

For `*Nc1cc(NC(=O)c2ccc(C(*)=O)cc2)cc(C(=O)OCCOc2ccc(/C=C/C(=O)c3ccccc3)cc2)c1` (repeat unit), the glass transition temperature came to 233.00 °C.

Regarding `*Nc1cc([N+](=O)[O-])c(NC(=O)CCCCCCCCC(*)=O)cc1/C=C/c1ccc(N(C)C)cc1` (repeat unit), the glass transition temperature was 159.00 °C.

Consider `*Nc1cc([N+](=O)[O-])c(NC(=O)CCCCCCCCCCC(*)=O)cc1/C=C/c1ccc(N(C)C)cc1` (repeat unit), for which the glass transition temperature was found to be 144.00 °C.

`*Nc1ccc(NC(=O)c2ccc(NC(=O)CCCCCCC(=O)Nc3ccc(C(*)=O)cc3)cc2)cc1C(=O)OCCCCCCCCCCCCCCCCCC` (repeat unit) returned a glass transition temperature of 305.00 °C.

`*Nc1ccc(NC(=O)c2ccc(NC(=O)CCCCCCCCCCCCC(=O)Nc3ccc(C(*)=O)cc3)cc2)cc1C(=O)OCCCCCCCCCCCCCC` (repeat unit) registered a glass transition temperature of 204.50 °C. As to `*Nc1ccc(NC(=O)c2ccc(NC(=O)CCCCCCCCCCCCC(=O)Nc3ccc(C(*)=O)cc3)cc2)cc1C(=O)OCCCCCCCCCCCCCCCCCC` (repeat unit), the glass transition temperature was determined as 191.00 °C. In turn, `*OC(=O)C(C)NC(=O)CCCCCC(=O)NC(C)C(=O)OC1COC2C(*)COC12` (repeat unit) gave a glass transition temperature of 45.00 °C. `*OC(=O)C(C)NC(=O)CCCCCCC(=O)NC(C)C(=O)OC1COC2C(*)COC12` (repeat unit): the glass transition temperature came to 57.00 °C.

As to `*OC(=O)C(C)NC(=O)CCCCCCCC(=O)NC(C)C(=O)OC1COC2C(*)COC12` (repeat unit), the glass transition temperature is 46.00 °C.

`*OC(=O)C(C)NC(=O)CCCCCCCCCCC(=O)NC(C)C(=O)OC1COC2C(*)COC12` (repeat unit): the glass transition temperature was found to be 28.00 °C. For `*OC(=O)C(CC(C)C)NC(=O)CCCCC(=O)NC(CC(C)C)C(=O)OC1COC2C(*)COC12` (repeat unit) the value was 91.00 °C.

The compound `*[O][Ca][O]C(=O)c1ccccc1C(=O)OCCCCCOC(=O)Nc1cc(NC(=O)OCCCCCOC(=O)c2ccccc2C(*)=O)ccc1C` (repeat unit) had a glass transition temperature of 5.10 °C. Regarding `*[O][Zn][O]C(=O)c1ccccc1C(=O)OCCCCCOC(=O)Nc1cc(NC(=O)OCCCCCOC(=O)c2ccccc2C(*)=O)ccc1C` (repeat unit), the glass transition temperature stood at 4.20 °C.

For the compound `*Oc1cc(OCCOC)c(OC(=O)c2ccc(C(*)=O)cc2OCCOCC)cc1OCCOC` (repeat unit), the glass transition temperature was determined as 99.00 °C. `*Oc1ccc(/N=C/CCC/C=N/c2ccc(OC(=O)Nc3cc(NC(*)=O)ccc3C)cc2)cc1` (repeat unit) showed a glass transition temperature of 69.00 °C.

`*Oc1ccc(/N=N/c2c(C)cc(Cc3cc(C)c(/N=N/c4ccc(OC(=O)c5ccc(C(*)=O)cc5)cc4)c(C)c3[N+](=O)[O-])c([N+](=O)[O-])c2C)cc1` (repeat unit) returned a glass transition temperature of 203.00 °C.

`*Oc1ccc(Cc2ccc(OC(=O)c3cc(OCCCCC)cc(C(*)=O)c3)cc2)cc1` (repeat unit): the glass transition temperature is 110.00 °C. In turn, `*Oc1ccc(OC(=O)c2cc(OCCCCCCCCCCCC)c(C(*)=O)cc2OCCCCCCCCCCCC)cc1C` (repeat unit) had a glass transition temperature of 112.00 °C. `*Oc1ccc(OC(=O)c2ccc(C(*)=O)cc2Oc2ccc(C(C)(C)c3ccccc3)cc2)cc1` (repeat unit) showed a glass transition temperature of 93.00 °C.

`*Oc1ccc(S(=O)(=O)c2ccc(OC(=O)c3cc(CCCCC)cc(C(*)=O)c3)cc2)cc1` (repeat unit) gave a glass transition temperature of 170.00 °C. For `*c1ccc(OC(=O)c2cc(C(=O)Oc3ccc(C4(*)OC(=O)c5ccccc54)cc3)cc(C(C)(C)C)c2)cc1` (repeat unit) the value was 279.00 °C; for `*c1ccc2c(c1)C(=O)N(c1cc(C(=O)Oc3ccc(C(c4ccc(OC(=O)c5ccc(C)c(N6C(=O)c7ccc(C(*)(C(F)(F)F)C(F)(F)F)cc7C6=O)c5)cc4)(C(F)(F)F)C(F)(F)F)cc3)ccc1C)C2=O` (repeat unit), 289.00 °C.
